In this test the test system is mouse. Put plainly: Analgesic effect in acetic acid writhing test on mouse. The class given is in vivo. The conditions noted are these: po, 20 min, 10 mg/kg orally, 60 minutes before 0.6% acetic acid i.p., count over 20 minutes relative to the reference group. The protocol:
A suspension of the test compound (10 mg/kg) was orally administered to a mouse. 60 minutes after the administration, a 0.6% aqueous acetic acid solution was intraperitoneally administered in an amount of 10 mL/kg. The mouse was accommodated in a special cage from immediately after the administration until 20 minutes after, and the writhing response was counted. The mean count number was compared relative to the reference group, so as to examine the difference (student's t-test), and the analgesic effect was evaluated.
Molecule `Cc1noc(NC(=O)N2CCN(c3ccnc(-c4cccc(F)c4F)n3)CC2)c1C` [Example 5, 4-[2-(2,3-difluorophenyl)pyrimidin-4-yl]-N-(3,4-dimethylisoxazol-5-yl)piperazine-1-carboxamide] gave a response vs control in vivo at 10 mg/kg of 42.2%.
Turning to `Cc1noc(NC(=O)N2CCN(c3cncc(-c4ccc(F)cc4F)n3)CC2)c1C` [Example 14, 4-[6-(2,4-difluorophenyl)pyrazin-2-yl]-N-(3,4-dimethylisoxazol-5-yl)piperazine-1-carboxamide], the response vs control in vivo at 10 mg/kg stood at 67.2%.
Under `O=C(Nc1cccnc1)N1CCN(c2nccc(-c3ccc(F)cc3F)n2)CC1` [Example 15, 4-[4-(2,4-difluorophenyl)pyrimidin-2-yl]-N-pyridin-3-ylpiperazine-1-carboxamide] stands 66.7%; under `O=C(Nc1cccnn1)N1CCN(c2nccc(-c3ccc(F)cc3F)n2)CC1` [Example 17, 4-[4-(2,4-difluorophenyl)pyrimidin-2-yl]-N-pyridazin-3-ylpiperazine-1-carboxamide], 56.9%.
`Cc1noc(NC(=O)N2CCN(c3cc(-c4ccc(F)cc4F)ncn3)CC2)c1C` [Example 19, 4-[6-(2,4-difluorophenyl)pyrimidin-4-yl]-N-(3,4-dimethylisoxazol-5-yl)piperazine-1-carboxamide] came in with a response vs control in vivo at 10 mg/kg of 51.9%.
For `O=C(Nc1cccnc1)N1CCN(c2nccc(-c3ccccc3)n2)CC1` [Example 77, 4-(4-phenylpyrimidin-2-yl)-N-pyridin-3-ylpiperazine-1-carboxamide] the value was 46.8%.
Turning to `O=C(Nc1cccnn1)N1CCN(c2nccc(-c3ccccc3)n2)CC1` [Example 79, 4-(4-phenylpyrimidin-2-yl)-N-pyridazin-3-ylpiperazine-1-carboxamide], the response vs control in vivo at 10 mg/kg was found to be 38.9%.
`O=C(Nc1cccnn1)N1CCN(c2nccc(-c3ccc(F)c(F)c3)n2)CC1` [Example 110, 4-[4-(3,4-difluorophenyl)pyrimidin-2-yl]-N-pyridazin-3-ylpiperazin-1-carboxamide] displayed a response vs control in vivo at 10 mg/kg of 34.7%.

The values are drawn from patent US20090163508A1, “AMIDE COMPOUND” (TAKEDA PHARMACEUTICAL COMPANY LIMITED, priority 2007, published 2009).
